This is an account of results in US8481567B2, “Sigma receptor compounds” (Laboratorios del Dr. Esteve, S.A., priority 2006, dated 2013).

The target in data set [1] is sigma-1 site (Homo sapiens, UniProt Q99720). The following applies: statement in words, background section; cited from earlier work.
For data set [2], the target named is sigma-2 site (Homo sapiens, UniProt Q5BJF2). The following applies: statement in words, background section; cited from earlier work.
sigma-2 site, sequence (Q5BJF2 whole entry): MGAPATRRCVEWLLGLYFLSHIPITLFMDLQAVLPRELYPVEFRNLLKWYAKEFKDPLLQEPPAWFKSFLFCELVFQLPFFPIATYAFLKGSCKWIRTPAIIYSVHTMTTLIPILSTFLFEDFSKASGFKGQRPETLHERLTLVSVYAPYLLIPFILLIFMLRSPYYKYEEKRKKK

sigma-1 site, sequence (Q99720 whole entry): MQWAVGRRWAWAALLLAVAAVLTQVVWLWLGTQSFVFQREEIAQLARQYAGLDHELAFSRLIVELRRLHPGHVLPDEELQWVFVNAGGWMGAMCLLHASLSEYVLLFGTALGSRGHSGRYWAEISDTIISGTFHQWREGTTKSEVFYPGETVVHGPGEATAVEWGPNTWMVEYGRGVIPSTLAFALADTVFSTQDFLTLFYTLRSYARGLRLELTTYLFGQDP

As a reminder, the melting point is the temperature, or range, at which the solid turns liquid. For the compound `Cn1ccc2c1CCCC2CCN1CCC(O)(c2ccc(Cl)cc2)CC1.O=C(O)C(=O)O` (stereo not shown), the melting point is 154 to 155 °C.

Regarding `Cn1ccc2c1CCCC2CCN1CCC(c2ccccc2)CC1.O=C(O)C(=O)O` (stereo not shown), the melting point is 86 to 90 °C.

For the compound SKF 10047, in data set [1], the “affinity for the sigma-1 site” value is “nanomolar”. Also, in data set [2], the “affinity for the sigma-2 site” value is on record as “micromolar”.
